Reference: PubChem BioAssay (NCI)
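Where inhibition never reached the appropriate level, the endpoint shown equals the highest concentration tested. Otherwise, values were interpolated linearly from a five-concentration, 48-hour dose response in 96-well plates. TGI: total growth inhibition.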

How the values were obtained:
Assay in all cases: growth of human tumour cells (NCI), 48 h
[1] = system: PC-3 prostate
[2] = system: U251 CNS
[3] = system: MALME-3M melanoma
[4] = system: NCI-H460 lung
[5] = system: MDA-N
[6] = system: NCI-H226 lung
[7] = system: A498 renal
[8] = system: SK-OV-3 ovarian
[9] = system: OVCAR-3 ovarian
[10] = system: HL-60(TB) leukemia
[11] = system: SNB-75 CNS
[12] = system: IGROV1 ovarian
[13] = system: HOP-62 NSCLC
[14] = system: SK-MEL-5 melanoma
[15] = system: OVCAR-4 ovarian
[16] = system: NCI-H522 lung
[17] = system: UACC-62 melanoma
[18] = system: HCT-15 colon
[19] = system: RXF 393 renal
[20] = system: MDA-MB-231 breast
[21] = system: A549 NSCLC
[22] = system: BT-549 breast
[23] = system: HCC-2998 colon
[24] = system: HS 578T breast
[25] = system: UO-31 renal
[26] = system: DU-145 prostate
[27] = system: CAKI-1 renal
[28] = system: COLO 205 colon
[29] = system: CCRF-CEM leukemia
[30] = system: HT29 colon
[31] = system: SW-620 colon
[32] = system: MCF7 breast
[33] = system: 786-0 renal
[34] = system: LOX IMVI melanoma
[35] = system: OVCAR-8 ovarian
[36] = system: T-47D breast
[37] = system: SN12C renal
[38] = system: HOP-92 NSCLC
[39] = system: ACHN renal
[40] = system: M14 melanoma
[41] = system: SK-MEL-28 melanoma
[42] = system: SNB-19 CNS
[43] = system: EKVX NSCLC
[44] = system: NCI-H23 lung
[45] = system: TK-10 renal
[46] = system: MDA-MB-435
[47] = system: MOLT-4 leukemia
[48] = system: NCI/ADR-RES ovarian
[49] = system: OVCAR-5 ovarian
[50] = system: SR leukemia
[51] = system: HCT-116 colon
[52] = system: K-562 leukemia
[53] = system: KM12 colon
[54] = system: RPMI-8226 leukemia
[55] = system: SF-295 CNS
[56] = system: SF-268 CNS
[57] = system: UACC-257 melanoma
[58] = system: SF-539 CNS
[59] = system: SK-MEL-2 melanoma

CN(C)C(Cc1cnc[nH]1)C(=O)N1CCCC1C(N)=O (configuration not stated) was tested. Which TGI [1] did it give?
Its TGI is over 100 µM.

And the TGI [2]?
The TGI was over 100 µM.

What about the TGI [3] of the same compound?
Its TGI is over 100 µM.

And the TGI [4]?
The TGI was over 100 µM.

What about the TGI [5] of the same compound?
Its TGI is over 100 µM.

And the TGI [6]?
The TGI was over 100 µM.

And the TGI [7]?
The TGI was 98 µM.

What about the TGI [8] of the same compound?
The TGI was over 100 µM.

What about the TGI [9] of the same compound?
The TGI was over 100 µM.

What about the TGI [10] of the same compound?
Its TGI is over 100 µM.

What about the TGI [11] of the same compound?
Its TGI is over 100 µM.

And the TGI [12]?
The TGI was over 100 µM.

What about the TGI [13] of the same compound?
The TGI was over 100 µM.

And the TGI [14]?
The TGI was over 100 µM.

And the TGI [15]?
Its TGI is over 100 µM.

What about the TGI [16] of the same compound?
Its TGI is over 100 µM.

And the TGI [17]?
The TGI was over 100 µM.

What about the TGI [18] of the same compound?
Its TGI is over 100 µM.

And the TGI [19]?
Its TGI is over 100 µM.

What about the TGI [20] of the same compound?
The TGI was over 100 µM.

And the TGI [21]?
The TGI was over 100 µM.

And the TGI [22]?
The TGI was over 100 µM.

What about the TGI [23] of the same compound?
Its TGI is over 100 µM.

What about the TGI [24] of the same compound?
Its TGI is over 100 µM.

What about the TGI [25] of the same compound?
The TGI was over 100 µM.

What about the TGI [26] of the same compound?
The TGI was over 100 µM.

And the TGI [27]?
The TGI was over 100 µM.

And the TGI [28]?
The TGI was over 100 µM.

And the TGI [29]?
Its TGI is over 100 µM.

What about the TGI [30] of the same compound?
Its TGI is over 100 µM.

What about the TGI [31] of the same compound?
Its TGI is over 100 µM.

And the TGI [32]?
Its TGI is over 100 µM.

And the TGI [33]?
The TGI was over 100 µM.

And the TGI [34]?
The TGI was over 100 µM.

What about the TGI [35] of the same compound?
The TGI was over 100 µM.

And the TGI [36]?
The TGI was over 100 µM.

What about the TGI [37] of the same compound?
The TGI was over 100 µM.

And the TGI [38]?
The TGI was over 100 µM.

What about the TGI [39] of the same compound?
The TGI was over 100 µM.

And the TGI [40]?
Its TGI is over 100 µM.

What about the TGI [41] of the same compound?
Its TGI is over 100 µM.

What about the TGI [42] of the same compound?
The TGI was over 100 µM.

What about the TGI [43] of the same compound?
The TGI was over 100 µM.

And the TGI [44]?
The TGI was over 100 µM.

And the TGI [45]?
Its TGI is over 100 µM.

And the TGI [46]?
Its TGI is over 100 µM.

And the TGI [47]?
The TGI was over 100 µM.

What about the TGI [48] of the same compound?
The TGI was over 100 µM.

And the TGI [49]?
The TGI was over 100 µM.

And the TGI [50]?
Its TGI is over 100 µM.

What about the TGI [51] of the same compound?
The TGI was over 100 µM.

And the TGI [52]?
The TGI was over 100 µM.

What about the TGI [53] of the same compound?
The TGI was over 100 µM.

And the TGI [54]?
Its TGI is over 100 µM.

And the TGI [55]?
The TGI was over 100 µM.

And the TGI [56]?
The TGI was over 100 µM.

What does the source list for O=c1c2cc(-c3ccccc3)sc2nc2n1N=C(c1ccccc1)CS2?
TGI [1]: > 100 µM; TGI [2]: 48.4 µM; TGI [3]: > 100 µM; TGI [4]: > 100 µM; TGI [5]: > 100 µM; TGI [6]: > 100 µM; TGI [7]: 71.9 µM; TGI [8]: 26.3 µM; TGI [9]: 49.1 µM; TGI [10]: > 100 µM; TGI [57]: 91.5 µM; TGI [11]: 89.1 µM; TGI [13]: 23 µM; TGI [14]: 79.3 µM; TGI [15]: 61.4 µM; TGI [16]: > 100 µM; TGI [17]: 31.7 µM; TGI [18]: > 100 µM; TGI [20]: > 100 µM; TGI [21]: > 100 µM; TGI [22]: 46.7 µM; TGI [23]: > 100 µM; TGI [24]: 49.4 µM; TGI [25]: > 100 µM; TGI [26]: > 100 µM; TGI [27]: 34.3 µM; TGI [28]: > 100 µM; TGI [29]: > 100 µM; TGI [58]: 89.1 µM; TGI [31]: > 100 µM; TGI [32]: 96.2 µM; TGI [33]: 38 µM; TGI [34]: > 100 µM; TGI [35]: > 100 µM; TGI [36]: > 100 µM; TGI [37]: > 100 µM; TGI [38]: 34.6 µM; TGI [39]: 32.5 µM; TGI [41]: > 100 µM; TGI [43]: > 100 µM; TGI [44]: > 100 µM; TGI [45]: > 100 µM; TGI [46]: > 100 µM; TGI [47]: > 100 µM; TGI [48]: 57.5 µM; TGI [49]: > 100 µM; TGI [50]: > 100 µM; TGI [51]: > 100 µM; TGI [52]: > 100 µM; TGI [53]: > 100 µM; TGI [54]: > 100 µM; TGI [55]: 44.2 µM; TGI [56]: > 100 µM

What does the source list for CCC(C#N)(c1ccccc1)N(CCc1ccccc1)C(=O)c1ccccc1 (configuration not stated)?
TGI [1]: > 100 µM; TGI [2]: > 100 µM; TGI [3]: > 100 µM; TGI [5]: > 100 µM; TGI [6]: 39.7 µM; TGI [7]: 79.6 µM; TGI [8]: 82.7 µM; TGI [9]: > 100 µM; TGI [10]: > 100 µM; TGI [57]: > 100 µM; TGI [11]: 78.7 µM; TGI [12]: > 100 µM; TGI [13]: 50.8 µM; TGI [14]: > 100 µM; TGI [15]: 44 µM; TGI [16]: > 100 µM; TGI [17]: > 100 µM; TGI [18]: > 100 µM; TGI [19]: 55.3 µM; TGI [20]: 52.2 µM; TGI [21]: > 100 µM; TGI [22]: > 100 µM; TGI [23]: > 100 µM; TGI [24]: 69.6 µM; TGI [25]: > 100 µM; TGI [26]: > 100 µM; TGI [27]: > 100 µM; TGI [28]: > 100 µM; TGI [29]: > 100 µM; TGI [58]: 34.8 µM; TGI [30]: > 100 µM; TGI [31]: > 100 µM; TGI [32]: > 100 µM; TGI [33]: 37.5 µM; TGI [34]: > 100 µM; TGI [35]: 54.2 µM; TGI [36]: > 100 µM; TGI [37]: > 100 µM; TGI [38]: 45.2 µM; TGI [39]: > 100 µM; TGI [40]: > 100 µM; TGI [41]: > 100 µM; TGI [42]: > 100 µM; TGI [43]: > 100 µM; TGI [44]: > 100 µM; TGI [45]: > 100 µM; TGI [46]: > 100 µM; TGI [59]: > 100 µM; TGI [47]: > 100 µM; TGI [48]: > 100 µM; TGI [49]: > 100 µM; TGI [50]: > 100 µM; TGI [51]: > 100 µM; TGI [52]: > 100 µM; TGI [53]: > 100 µM; TGI [54]: > 100 µM; TGI [55]: > 100 µM; TGI [56]: > 100 µM
